Converted amounts (≈) assume the structure as drawn.
Tests used:
VEGFR1 = target: T1, VEGFR1 (Homo sapiens, UniProt P17948); assay: Kinase inhibition, Mobility Shift Assay/IMAP, VEGFR1; type: biochemical
T1 construct: purchased Invitrogen PR6731B
Procedure, shortened: (§1)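 Substrate conversion (phosphorylated vs non-phosphorylated) read by mobility shift on Caliper EZ Reader II and converted to % inhibition relative to no-enzyme and DMSO controls. IC50 fitted from % inhibition versus log compound concentration.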

VEGFR3 = target: T2, VEGFR3 (Homo sapiens, UniProt P35916); assay: Kinase inhibition, Mobility Shift Assay/IMAP, VEGFR3; type: biochemical
T2 construct: purchased Invitrogen PV4129
Procedure, shortened: as §1

TIE2 = target: T3, TIE2 (Homo sapiens, UniProt Q02763); assay: Kinase inhibition, Mobility Shift Assay/IMAP, TIE2; type: biochemical
T3 construct: purchased BPS 40270
Procedure, shortened: as §1

EGFR = target: T4, EGFR (Homo sapiens, UniProt P00533); assay: Kinase inhibition, Mobility Shift Assay/IMAP, EGFR; type: biochemical
T4 construct: purchased Carna 08-115
Procedure, shortened: as §1

HUVEC cells = assay: Inhibition of VEGF-induced HUVEC cell proliferation, CellTiter Glo; type: cell-based; conditions: Homo sapiens, 20 ng/ml VEGF, 72 hours
Text: In this experiment, human umbilical vein endothelial cells (HUVEC, Lonza) were used. HUVEC cells are primary cells isolated from umbilical veins. This cell line is a model system to study the functions of endothelial cells. Endothelial cell proliferation in response to VEGF is crucial to the pathological angiogenesis associated with conditions such as tumor development and ocular neovascular diseases.
In this assay, a luciferase bioluminescence assay (CellTiter GLU™, Promega) is used to determine the inhibitory activity of the compounds against VEGF-induced HUVEC cell proliferation and viability. CellTiter GLO™ is a homogeneous method for quantifying the count of viable cells in culture based on ATP, an indicator of metabolically active cells. In this assay, the compound was incubated with HUVEC cells for 72 hours, and then the inhibitory activity of the resulting compound against VEGF-induced HUVEC cell proliferation was measured on the En Vision plate reader.
With the RPMI-1640 medium (plus 5% FBS, 1% Penicillin-Streptomycin) used for the HUVEC cell proliferation experiment, add a cell suspension to a 96-well plate at 100 μl per well, i.e., 4000 HUVEC cells/well, and incubate them overnight in a 5% CO2 incubator at 37° C. (serum starvation). After 24 hours, add 96 μl of the experimental medium to the cell wells, and then add 2 μl of the compound to the cell wells; and after 1 hour following the addition of the compound, add 2 μl of 2 μg/ml VEGF to the cell wells. Add 0.1% DMSO and 20 ng/ml VEGF to cell wells to serve as high-reading control wells. Take cell-free wells with only medium as low-reading control wells. […] After 72 hours of incubation of the cell plate in the incubator, hold the cell plate to be tested at room temperature and discard 100 μl of medium per well. Add 100 μl of CTG reagent (CellTiter Glo kit) per well, oscillate the cell plate in a fast oscillator for 3 minutes, and keep the cell plate at room temperature in the dark for 30 minutes. Read the chemiluminescence signal value with the Envision instrument.
X indicates the log value of compound concentration, Y indicates the inhibition rate (% inhibition), Top indicates the readout of the high-reading control well.

[1] = Solubility test in buffer, LC-MS; type: physicochemical; conditions: aqueous buffer, thermodynamic from solid, room temperature, shaking 8 h, pH not given (method: pH 2.0, 6.5, 7.4)
Procedure, shortened: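 Compound at 2 mg/mL in buffers of pH 2.0, 6.5 and 7.4, sonicated, shaken 8 h at room temperature, then centrifuged at 13,000 rpm. Supernatant quantified by LC-MS against a 3–5 point calibration.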

VEGFR2 [2] = target: T5, VEGFR2 (Homo sapiens, UniProt P35968); assay: Kinase inhibition, Mobility Shift Assay/IMAP, VEGFR2; type: biochemical; parameters: purchased Carna 08-191
Procedure, shortened: as §1
Target sequence in this assay (P35968 790-1356 limits assumed): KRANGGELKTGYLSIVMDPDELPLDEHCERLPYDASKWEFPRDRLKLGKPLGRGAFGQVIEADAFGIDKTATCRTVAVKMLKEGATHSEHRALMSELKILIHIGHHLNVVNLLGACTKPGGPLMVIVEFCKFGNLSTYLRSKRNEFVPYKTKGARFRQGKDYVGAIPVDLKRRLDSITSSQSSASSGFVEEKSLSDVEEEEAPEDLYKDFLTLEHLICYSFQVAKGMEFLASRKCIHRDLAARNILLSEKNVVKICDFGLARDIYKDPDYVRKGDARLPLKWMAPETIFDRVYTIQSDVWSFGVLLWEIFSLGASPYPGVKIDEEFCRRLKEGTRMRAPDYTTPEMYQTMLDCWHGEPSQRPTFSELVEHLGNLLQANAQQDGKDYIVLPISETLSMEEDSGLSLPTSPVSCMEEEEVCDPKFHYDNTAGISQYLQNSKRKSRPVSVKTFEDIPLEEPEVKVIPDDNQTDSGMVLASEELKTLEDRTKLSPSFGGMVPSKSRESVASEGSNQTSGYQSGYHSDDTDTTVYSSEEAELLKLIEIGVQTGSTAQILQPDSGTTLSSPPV

VEGFR2 [3] = target: T5, VEGFR2; assay: Inhibition of VEGF-induced VEGFR2 autophosphorylation (pVEGFR2) in HUVEC cells, ELISA; type: cell-based; parameters: endogenous in cells; host or cells: HUVEC; conditions: 50 ng/mL human VEGF, compound 1 h
Text: Vascular endothelial growth factor receptor 2 (VEGFR2) is a primary receptor for VEGF-induced endothelial cell signaling. After ligand binding, VEGFR2 is autophosphorylated and activated. The main function of signaling from VEGFR2 is to induce vascularization during development and after tissue injury, and to bypass blocked blood vessels. Pathologically, VEGF and VEGFR2 are involved in tumor angiogenesis and vascular leakage. They are considered to be main participants in many different cancers and ocular diseases that accompany pathological neovascularization. This assay measured the ability of the compounds to inhibit VEGF-induced VEGFR2 autophosphorylation (pVEGFR2) in HUVEC cells by using ELISA.
Culture cells in a cell culture flask to reach a fusion degree of 60%-80% before cell inoculation. Dilute the cell suspension to […] with a pre-warmed complete medium. Add 80 μL of the cell suspension to all wells of a 96-well cell plate (Corning-3599); and incubate the plate overnight at 37° C. in the presence of 5% CO2. Dissolve the compound powder to 10 mM with DMSO and store it in a nitrogen cabinet. Compound dilution plate: Add a reference compound Ponatinib or a compound to be tested to a 96 V-well plate (Axygen-WIPP 2280) at concentrations achieved as follows: performing 3-fold gradient dilution starting from 5 mM (5 μL of 10 mM compound solution plus 5 μL of DMSO) for a total of 8 concentration points. […] Transfer 20 μL of the diluted compound from the intermediate plate to a cell plate. Then, incubate the cell plate for 1 h at 37° C. in the presence of 5% CO2. After the compound was treated for 1 h, add 25 μL of 250 ng/ml human VEGF at a final concentration of 50 ng/mL to a 96-well plate; and incubate the plate for 5 min at 37° C. in the presence of 5% CO2, centrifuge the plate for 10 min at 3,000 rpm, remove the medium and wash the cells once with 300 μL of pre-chilled DPBS per well. Then, centrifuge the plate for 10 min at 4,000 rpm, remove DPBS, and add 110 μL of pre-chilled 1× cell lysis buffer per well to the 96-well plate. Shake the plate for 40 min at 4° C. Then, freeze the plate in a refrigerator at −80° C. On the next day, remove the plate from the refrigerator at −80° C., thaw the plate, centrifuge the plate for 10 min at 3500 rpm, and add 100 μL of the supernatant per well to an ELISA plate. Seal the plate and incubate it for 2 h at 37° C. Wash the wells 4 times with 1× wash buffer. Add 100 μL of recombinant detection antibody per well. Seal the plate, incubate the plate for 1 h at 37° C., and repeat the step of plate washing. Add 100 μL of secondary antibody per well. Seal the plate, incubate the plate for 30 min at 37° C., and repeat the step of plate washing. Add 100 μL of TMB (protected from light) per well. Seal the plate, incubate the plate for 30 min at 37° C., and add 100 μL of the stop solution per well. Gently shake for 30 sec, measure the absorbance with a SpectraMax® 340 PC 384 Absorbance Microplate Reader within 30 min, and read an optical density value at 450 nm. Conduct data analysis using XL Fit software:
Conduct curve fitting using the 4 Parameter Logistic Model or Sigmoidal Dose-Response Model to obtain IC50 values.
X indicates the log value of compound concentration, Y indicates the inhibition rate (% inhibition), Top indicates the readout of the negative control wells, and Bottom indicates the readout of the positive control well.
Target sequence in this assay (P35968 20-1356): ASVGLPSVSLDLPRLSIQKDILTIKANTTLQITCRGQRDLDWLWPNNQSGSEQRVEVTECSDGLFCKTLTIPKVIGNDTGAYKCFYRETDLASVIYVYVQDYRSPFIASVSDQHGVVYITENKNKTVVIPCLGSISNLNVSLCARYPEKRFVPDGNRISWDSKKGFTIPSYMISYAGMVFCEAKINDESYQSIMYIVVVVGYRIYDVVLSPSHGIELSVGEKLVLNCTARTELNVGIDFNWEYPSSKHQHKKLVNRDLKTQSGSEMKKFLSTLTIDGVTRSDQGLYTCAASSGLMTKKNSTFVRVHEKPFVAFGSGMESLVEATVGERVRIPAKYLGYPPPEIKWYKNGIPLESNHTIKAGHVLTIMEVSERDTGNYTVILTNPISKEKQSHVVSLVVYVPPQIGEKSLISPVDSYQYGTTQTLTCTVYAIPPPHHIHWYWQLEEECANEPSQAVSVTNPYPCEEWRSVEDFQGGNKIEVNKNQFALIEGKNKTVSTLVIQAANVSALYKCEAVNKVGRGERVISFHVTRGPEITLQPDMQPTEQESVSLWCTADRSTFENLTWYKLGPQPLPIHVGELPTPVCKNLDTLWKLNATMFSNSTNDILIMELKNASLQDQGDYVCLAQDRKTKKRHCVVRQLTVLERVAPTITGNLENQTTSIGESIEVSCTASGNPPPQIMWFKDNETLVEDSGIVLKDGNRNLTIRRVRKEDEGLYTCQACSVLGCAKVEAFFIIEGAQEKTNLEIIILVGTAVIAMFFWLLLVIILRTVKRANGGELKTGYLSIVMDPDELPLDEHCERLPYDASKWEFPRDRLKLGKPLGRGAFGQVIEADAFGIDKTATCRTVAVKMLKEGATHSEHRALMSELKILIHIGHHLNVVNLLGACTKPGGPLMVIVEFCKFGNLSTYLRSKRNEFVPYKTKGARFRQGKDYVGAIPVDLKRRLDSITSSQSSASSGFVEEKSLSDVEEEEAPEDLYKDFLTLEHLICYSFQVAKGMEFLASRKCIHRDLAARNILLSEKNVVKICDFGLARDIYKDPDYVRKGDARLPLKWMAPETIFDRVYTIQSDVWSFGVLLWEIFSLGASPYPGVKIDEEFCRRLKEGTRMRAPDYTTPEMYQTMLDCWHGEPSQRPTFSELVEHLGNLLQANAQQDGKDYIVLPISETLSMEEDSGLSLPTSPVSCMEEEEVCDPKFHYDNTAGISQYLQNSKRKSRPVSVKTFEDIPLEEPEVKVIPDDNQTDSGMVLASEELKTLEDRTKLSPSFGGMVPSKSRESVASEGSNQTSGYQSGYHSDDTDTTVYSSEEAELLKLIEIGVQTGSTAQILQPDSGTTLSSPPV

melanin = assay: Binding capacity of compounds to melanin; type: in vitro ADME, cuttlefish (Sepia officinalis); conditions: cuttlefish (Sepia officinalis), melanin suspension (1 mg/mL); 1 mg/mL melanin in PBS pH 7.4, 2 μM compound, 2 h at 37° C.; read-out: Fu % (percentage of free drug)
Procedure, shortened: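 Compound (2 μM final) incubated with washed Sepia melanin (1 mg/mL, PBS pH 7.4) 2 h at 37° C with shaking; PBS with 0.1% BSA served as blank. Supernatants quantified by LC-MS/MS; bound fraction Fb derived from melanin versus blank concentration.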

[4] = tested on: male black-banded Dutch rabbits; conditions: eye drops, male black-banded Dutch rabbits, third day after eye drop administration
Text: The binding of the compound to melanin may affect ocular pharmacokinetics after topical administration. […] In such cases, the compound may bind to melanin tissues in the posterior segment (retinal pigment epithelium, choroid) or anterior segment (ciliary body, iris) of the eye.

[5] = rabbit
Description: We used male Dutch black-banded rabbits to assess the MTD of the compounds administered in eye drops.
Male Dutch black-banded rabbits (weighing 1.5 kg to 2.5 kg) were purchased from an eligible supplier.
A total of 8 rabbits animals with good health conditions and normal eyes (without abnormalities such as trauma, congestion, redness and swelling) were randomly divided into 4 groups. […] Eye drop administration was conducted for two consecutive days, 3 times a day, at an interval of 6±0.5 hours. Before administration, the status of the dosing preparation was inspected, and its homogeneity was ensured by means of vortexing, stirring, or shaking. Before each administration, the states of rabbit eyes were observed, including but not limited to eye color, substances around the eyes, conjunctival swelling, eye exudate, discharge, cornea, pupillary reflex, etc. Subsequently, the toxicity risk assessment for six consecutive days of eye drop administration was further conducted. A total of 8 rabbits were randomly divided into 2 groups. […] Eye drop administration was conducted 3 times a day, at an interval of 6±0.5 hours.

T4 sequence (P00533 669-1210 limits assumed): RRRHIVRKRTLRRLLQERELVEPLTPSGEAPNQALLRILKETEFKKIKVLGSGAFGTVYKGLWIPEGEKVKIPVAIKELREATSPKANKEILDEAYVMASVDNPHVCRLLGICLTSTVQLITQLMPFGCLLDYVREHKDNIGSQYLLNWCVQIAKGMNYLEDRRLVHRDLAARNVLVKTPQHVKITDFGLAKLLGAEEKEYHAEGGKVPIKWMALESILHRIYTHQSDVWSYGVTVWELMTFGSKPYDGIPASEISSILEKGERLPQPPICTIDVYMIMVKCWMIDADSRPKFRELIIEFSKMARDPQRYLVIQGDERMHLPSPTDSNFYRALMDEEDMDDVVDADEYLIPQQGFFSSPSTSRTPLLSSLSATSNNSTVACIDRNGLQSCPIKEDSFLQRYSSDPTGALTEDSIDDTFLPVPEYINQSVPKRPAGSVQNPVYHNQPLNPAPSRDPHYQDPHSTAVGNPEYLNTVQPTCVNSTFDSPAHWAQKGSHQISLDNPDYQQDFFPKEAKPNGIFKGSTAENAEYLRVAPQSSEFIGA
T2 sequence (P35916 25-1363): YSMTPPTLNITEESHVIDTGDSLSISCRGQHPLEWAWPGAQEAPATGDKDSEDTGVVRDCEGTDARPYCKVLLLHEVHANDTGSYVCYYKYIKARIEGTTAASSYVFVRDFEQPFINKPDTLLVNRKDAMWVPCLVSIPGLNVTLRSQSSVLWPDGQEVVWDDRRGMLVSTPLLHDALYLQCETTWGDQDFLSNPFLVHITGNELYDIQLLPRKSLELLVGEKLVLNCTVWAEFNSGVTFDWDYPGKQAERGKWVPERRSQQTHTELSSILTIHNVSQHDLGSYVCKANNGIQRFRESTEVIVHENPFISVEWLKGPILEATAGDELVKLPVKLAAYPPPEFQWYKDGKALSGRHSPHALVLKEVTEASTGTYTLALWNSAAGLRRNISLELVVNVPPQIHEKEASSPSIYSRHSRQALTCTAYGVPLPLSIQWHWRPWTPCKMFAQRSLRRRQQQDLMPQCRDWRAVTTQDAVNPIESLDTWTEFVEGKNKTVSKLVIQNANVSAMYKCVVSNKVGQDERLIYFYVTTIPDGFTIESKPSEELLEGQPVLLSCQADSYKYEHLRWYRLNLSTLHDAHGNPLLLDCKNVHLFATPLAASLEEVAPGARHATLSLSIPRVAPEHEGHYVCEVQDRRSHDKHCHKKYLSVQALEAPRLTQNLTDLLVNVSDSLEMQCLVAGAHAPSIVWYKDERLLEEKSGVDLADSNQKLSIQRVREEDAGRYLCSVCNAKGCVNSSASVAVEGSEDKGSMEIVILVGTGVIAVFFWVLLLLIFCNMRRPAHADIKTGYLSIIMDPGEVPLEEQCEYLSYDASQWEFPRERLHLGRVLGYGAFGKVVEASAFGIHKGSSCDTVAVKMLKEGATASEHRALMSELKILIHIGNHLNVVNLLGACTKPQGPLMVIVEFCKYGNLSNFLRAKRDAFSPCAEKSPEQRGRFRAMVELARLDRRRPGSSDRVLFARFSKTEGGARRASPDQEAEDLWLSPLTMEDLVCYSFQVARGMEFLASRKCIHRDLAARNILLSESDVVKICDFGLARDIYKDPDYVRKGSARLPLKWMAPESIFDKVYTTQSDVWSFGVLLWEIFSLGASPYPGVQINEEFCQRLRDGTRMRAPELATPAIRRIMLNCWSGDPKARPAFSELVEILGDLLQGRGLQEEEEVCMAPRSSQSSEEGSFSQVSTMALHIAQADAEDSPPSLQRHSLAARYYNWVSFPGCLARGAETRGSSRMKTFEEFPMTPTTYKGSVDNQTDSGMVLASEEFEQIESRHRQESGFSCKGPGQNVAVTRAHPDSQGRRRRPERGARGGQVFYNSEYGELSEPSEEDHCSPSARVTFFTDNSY
T1 sequence (P17948 27-1338): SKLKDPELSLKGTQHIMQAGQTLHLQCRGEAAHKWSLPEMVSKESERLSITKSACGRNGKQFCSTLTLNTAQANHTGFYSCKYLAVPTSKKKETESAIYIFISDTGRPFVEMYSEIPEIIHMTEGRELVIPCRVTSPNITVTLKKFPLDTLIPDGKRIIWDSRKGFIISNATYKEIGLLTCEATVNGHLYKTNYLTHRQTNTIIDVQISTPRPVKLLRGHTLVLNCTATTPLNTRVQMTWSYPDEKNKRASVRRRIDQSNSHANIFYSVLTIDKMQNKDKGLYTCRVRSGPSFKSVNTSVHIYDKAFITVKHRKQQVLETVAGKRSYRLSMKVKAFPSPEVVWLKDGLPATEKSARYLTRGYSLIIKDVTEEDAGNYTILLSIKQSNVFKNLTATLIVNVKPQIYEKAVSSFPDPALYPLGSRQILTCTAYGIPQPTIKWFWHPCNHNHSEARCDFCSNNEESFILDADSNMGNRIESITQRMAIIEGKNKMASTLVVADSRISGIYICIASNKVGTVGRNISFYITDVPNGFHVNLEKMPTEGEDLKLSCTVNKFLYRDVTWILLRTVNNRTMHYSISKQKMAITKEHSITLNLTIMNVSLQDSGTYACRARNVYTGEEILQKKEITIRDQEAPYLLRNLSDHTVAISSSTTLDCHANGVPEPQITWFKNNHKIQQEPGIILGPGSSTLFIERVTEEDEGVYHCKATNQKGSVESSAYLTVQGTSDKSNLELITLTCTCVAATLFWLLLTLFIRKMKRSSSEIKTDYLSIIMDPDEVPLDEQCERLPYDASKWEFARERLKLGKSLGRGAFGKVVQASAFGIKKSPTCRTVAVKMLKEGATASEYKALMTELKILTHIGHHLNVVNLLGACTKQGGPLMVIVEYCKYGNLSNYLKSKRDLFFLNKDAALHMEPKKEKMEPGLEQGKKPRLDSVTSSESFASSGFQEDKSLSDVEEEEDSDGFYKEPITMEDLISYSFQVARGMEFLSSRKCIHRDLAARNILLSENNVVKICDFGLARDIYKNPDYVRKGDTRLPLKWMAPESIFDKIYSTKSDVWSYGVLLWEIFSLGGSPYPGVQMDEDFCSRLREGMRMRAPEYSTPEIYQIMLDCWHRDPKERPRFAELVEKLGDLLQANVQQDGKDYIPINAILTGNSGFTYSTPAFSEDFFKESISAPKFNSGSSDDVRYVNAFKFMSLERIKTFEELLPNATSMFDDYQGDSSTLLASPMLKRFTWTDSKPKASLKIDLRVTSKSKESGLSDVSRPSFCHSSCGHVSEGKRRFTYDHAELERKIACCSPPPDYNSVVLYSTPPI

Row | IC50 (VEGFR1) | IC50 (VEGFR3) | IC50 (TIE2) | IC50 (EGFR) | solubility at 8 h [1] | IC50 (VEGFR2 [2]) | IC50 (VEGFR2 [3]) | fraction unbound at 2 h, 2 μM (melanin) | SMILES | IC50 (HUVEC cells) | maximum tolerated dose (MTD) [4] | MTD on the third day of eye drop administration ([5]; eye drops 3 times a day, both eyes) | MTD on the eighth day of eye drop administration ([5]; six consecutive days of eye drops, 3 times a day)
1 | 34.3 nM | 42 nM | 448 nM | 33000 nM | 820 µg/mL (≈ 1780 µM) | 14.2 nM | 22 nM |  | NC(=O)c1c(OCc2ccc3c(c2)OCC3)nsc1NC(=O)NCCCCN1CCCC1 [Compound T042, 3-((2,3-dihydrobenzofuran-6-yl)methoxy)-5-(3-(4-(pyrrolidin-1-yl)butyl)ureido)isothiazole-4-carboxamide] | 79.9 nM |  |  | 
2 | 5.72 nM | 16.8 nM | 4060 nM | 16100 nM | 800 µg/mL (≈ 1500 µM) | 2.09 nM | 56.5 nM | 0.0241 | CN1CCN(CCCNC(=O)Nc2snc(OCc3ccc(F)c(C(=O)NC4CC4)c3)c2C(N)=O)CC1 [Compound T078, 3-[[3-(cyclopropylcarbamoyl)-4-fluoro-phenyl]methoxy]-5-[3-(4-methylpiperazin-1-yl)propylcarbamoylamino]isothiazole-4-carboxamide] |  |  |  | 
3 |  |  |  | 11400 nM |  | 4.7 nM | 93 nM | 0.0469 | CN1CC[C@H](CCNC(=O)Nc2snc(OCc3cc4c(cc3F)CCO4)c2C(N)=O)C1 [Compound T095, 3-[(5-fluoro-2,3-dihydrobenzofuran-6-yl)methoxy]-5-[2-[(3S)-1-methylpyrrolidin-3-yl]ethylcarbamoylamino] isothiazole-4-carboxamide] | 55.8 nM |  |  | 
4 |  |  |  | 18900 nM |  | 16.4 nM | 34.5 nM | 0.0322 | COc1ccc(F)c(COc2nsc(NC(=O)NCCCCN3CC[C@H](O)C3)c2C(N)=O)c1F [Compound T104, 3-[(2,6-difluoro-3-methoxy-phenyl)methoxy]-5-[4-[(3S)-3-hydroxypyrrolidin-1-yl]butylcarbamoylamino] isothiazole-4-carboxamide] | 35.5 nM |  |  | 
5 |  |  |  | 13400 nM |  | 12.8 nM | 32.5 nM | 0.0333 | COc1ccc(F)c(COc2nsc(NC(=O)NCCCCN3CC[C@@H](O)C3)c2C(N)=O)c1F [Compound T114, 3-[(2,6-difluoro-3-methoxy-phenyl)methoxy]-5-[4-[(3R)-3-hydroxypyrrolidin-1-yl]butylcarbamoylamino]isothiazole-4-carboxamide] | 19 nM |  |  | 
6 |  |  |  | > 60000 nM |  | 2.7 nM | 27 nM | 0.0495 | COc1cc(OC)c(F)c(COc2nsc(NC(=O)NCCC3CCN(CCF)CC3)c2C(N)=O)c1F [Compound T126, 3-[(2,6-difluoro-3,5-dimethoxy-phenyl)methoxy]-5-[2-[1-(2-fluoroethyl)-4-piperidyl]ethylcarbamoylamino]isothiazole-4-carboxamide] | 22 nM |  |  | 
7 | 2.39 nM | 10 nM |  | 12000 nM | 1580 µg/mL (≈ 3040 µM) | 2.35 nM | 52.2 nM |  | CN1CCN(CCNC(=O)Nc2snc(OCc3ccc(F)c(C(=O)NC4CC4)c3)c2C(N)=O)CC1 [Compound T149, 3-[[3-(cyclopropylcarbamoyl)-4-fluoro-phenyl]methoxy]-5-[2-(4-methylpiperazin-1-yl)ethylcarbamoylamino]isothiazole-4-carboxamide] |  |  |  | 
8 | 1.53 nM | 3.91 nM |  | 10700 nM | 1340 µg/mL (≈ 2590 µM) | 1.75 nM | 68.4 nM |  | NC(=O)c1c(OCc2ccc(F)c(C(=O)NC3CC3)c2)nsc1NC(=O)NCCCCN1CCCC1 [Compound T151, 3-[[3-(cyclopropylcarbamoyl)-4-fluoro-phenyl]methoxy]-5-(4-pyrrolidin-1-ylbutylcarbamoylamino)isothiazole-4-carboxamide] |  |  |  | 

Row | SMILES | IC50 (VEGFR1) | IC50 (VEGFR3) | IC50 (TIE2) | IC50 (EGFR) | solubility at 8 h [1] | IC50 (VEGFR2 [2]) | IC50 (VEGFR2 [3]) | fraction unbound at 2 h, 2 μM (melanin) | IC50 (HUVEC cells) | maximum tolerated dose (MTD) [4] | MTD on the third day of eye drop administration ([5]; eye drops 3 times a day, both eyes) | MTD on the eighth day of eye drop administration ([5]; six consecutive days of eye drops, 3 times a day)
9 | COc1ccc(F)c(COc2nsc(NC(=O)NCCCCN3CCCC3)c2C(N)=O)c1F [Compound T093, 3-((2,6-difluoro-3-methoxybenzyl)oxy)-5-(3-(4-(pyrrolidin-1-yl)butyl)ureido)isothiazole-4-carboxamide] |  |  | 181 nM | 14600 nM |  | 12.4 nM |  | 0.0531 | 55.8 nM | ≥ 250 μg/eye | ≥ 250 μg/eye | ≥ 250 μg/eye

— US20260217698A1 (BEYANG THERAPEUTICS CO., LTD., priority 2022, published 2026)
